{"source": "patent US9133230B2", "about": "“Hydrazone derivatives having potent antitumor activity toward multi-drug resistant tumor cells” (THE UNITED STATES OF AMERICA AS REPRESENTED BY THE …, priority 2011, dated 2015)", "assay_type_in_all_cases": "cell-based", "key": {"[1]": {"test_system": "human myelogenous leukemia K562", "experiment": "MTS cytotoxicity assay, K562", "conditions": "Homo sapiens, K562, 48 h incubation", "procedure,_shortened": "(§1)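 Log-phase human tumour cells plated at about 5000 cells/mL, left 24 h, then exposed to compound dilutions in triplicate for 48 h at 37 °C, 5% CO2. Viability read as MTS/PMS tetrazolium reduction after 2 h, absorbance at 490 nm.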"}, "[2]": {"test_system": "human colon carcinoma HT-29", "experiment": "MTS cytotoxicity assay, HT-29", "conditions": "Homo sapiens, HT-29, 48 h incubation", "procedure,_shortened": "as §1"}, "[3]": {"test_system": "human colon adenocarcinoma Caco-2", "experiment": "MTS cytotoxicity assay, Caco-2", "conditions": "Homo sapiens, Caco-2, 48 h incubation", "procedure,_shortened": "as §1"}, "[4]": {"test_system": "nonsmall cell lung cancer cell lines", "experiment": "NCI 60 human tumor cell line screen, NSCL", "conditions": "Homo sapiens, arithmetic mean of two to nine cancer cell lines, read-out: Inhibitory concentration GI50, NSCL", "text": "(§2) Selected compounds were submitted for testing in the organ-specific panel of human tumor cell lines at the National Cancer Institute, Bethesda, Md. This screen utilized 60 human tumor cell lines, representing leukemia, melanoma, and cancers of the lung, colon, brain, ovary, kidney, prostate, and breast (Boyd, M. R., “Status of the NCl preclinical antitumor drug discovery screen”. In Principles and practice of oncology updates; De Vita, V. T., Jr. Hellman, S., Rosenberg, S. A., Eds.; Lippincott: Philadelphia, Pa., 1989; Vol. 3, pp 1-12).\n(§3) The MG MID value is the average of the GI50 values for all the cell lines tested for drug concentrations in the range of 10^−4-10^−8 M (See website domain: dtp.nci.nih.gov/dtp)."}, "[5]": {"test_system": "melanoma cell lines", "experiment": "NCI 60 human tumor cell line screen, melanoma", "conditions": "Homo sapiens, arithmetic mean of two to nine cancer cell lines, read-out: Inhibitory concentration GI50, melanoma", "text": "as §2, §3"}, "[6]": {"test_system": "renal cancer cell lines", "experiment": "NCI 60 human tumor cell line screen, renal", "conditions": "Homo sapiens, arithmetic mean of two to nine cancer cell lines, read-out: Inhibitory concentration GI50, renal", "text": "as §2, §3"}, "[7]": {"test_system": "prostate cancer cell lines", "experiment": "NCI 60 human tumor cell line screen, prostate", "conditions": "Homo sapiens, arithmetic mean of two to nine cancer cell lines, read-out: Inhibitory concentration GI50, prostrate", "text": "as §2, §3"}, "[8]": {"test_system": "human colorectal carcinoma HT29", "experiment": "Annexin-V FACS analysis of apoptosis", "conditions": "FIGS. 3 and 4, treated versus control cells", "protocol": "This activation was through ERK signaling and not through JNK signaling, resulting in PARP cleavage after 16 h. […] Activation of NFkB (p50) was also observed following treatment with these compounds."}, "[9]": {"test_system": "human colorectal carcinoma HT29", "experiment": "Western blot of signal transduction pathways in HT29 cells", "conditions": "HT29, IC50 dose"}}}
{"smiles": "C(=NNc1ncnc2[nH]cnc12)c1ccccn1", "note": "[I-18, 6-(2-(Pyridin-2-ylmethylene)hydrazinyl)-9H-purine]", "values": [{"measurement": "GI50", "setting": "[1]", "value": 2300, "unit": "nM"}, {"measurement": "GI50", "setting": "[2]", "value": 3500, "unit": "nM"}, {"measurement": "GI50", "setting": "[3]", "value": 2200, "unit": "nM"}, {"measurement": "GI50", "setting": "[4]", "value": 1230, "unit": "nM"}, {"measurement": "GI50", "setting": "[5]", "value": 753, "unit": "nM"}, {"measurement": "GI50", "setting": "[6]", "value": 1480, "unit": "nM"}, {"measurement": "GI50", "setting": "[7]", "value": 598, "unit": "nM"}, {"measurement": "Apoptosis (Annexin-V, FACS analysis)", "setting": "[8]", "value": "Apoptosis was also established"}, {"measurement": "Activation of NFkB (p50)", "setting": "[9]", "value": "observed"}]}
